Values after ≈ are worked out from the molar mass of the structure shown.

Holding throughout (assay type): biochemical, Staphylococcus aureus
For assay [1], the target named is T1, β‐lactamase N1.
T1 construct: gene rnjB
The assay is described as follows: nitrocefin hydrolysis assay, purified mutant enzyme.

Assay [2] has as its target T1, β‐lactamase N1. The description is as above. This is another data set of the same source.
In assay [3] the target is T1, β‐lactamase N1. The assay is described as follows: nitrocefin hydrolysis assay, purified recombinant enzyme.

On to `O=C(O[C@@H]1Cc2c(O)cc(O)cc2O[C@@H]1c1cc(O)c(=O)c2c(O)c(O)cc([C@H]3Oc4cc(O)cc(O)c4C[C@H]3OC(=O)c3cc(O)c(O)c(O)c3)c2c1)c1cc(O)c(O)c(O)c1` [TFDG, Theaflavin‐3,3´‐digallate], for which the 50% inhibitory concentration (IC50) (as a rule, the concentration at which inhibition is half-maximal) worked out at 30.13 µg/mL (≈ 34.7 µM) at β‐lactamase N1 [1], 28.91 µg/mL (≈ 33.3 µM) against β‐lactamase N1 [2] and 5.82 µg/mL at β‐lactamase N1 [3].
